Measurements: ChEMBL document CHEMBL1136452, “Influence of ethylene-oxy spacer group on the activity of linezolid: synthesis of potent antibacterials possessing a thiocarbonyl group” (2003)
Converted amounts (≈) assume the structure as drawn.

What was measured:
Format in all cases: functional
Enterococcus faecium [1] = experiment: In vitro antibacterial activity against vancomycin-resistant Enterococcus faecium 154 (Enterococcus faecium ATCC 12202)
Enterococcus faecalis [2] = experiment: In vitro antibacterial activity against vancomycin-susceptible E. f. 034 (Enterococcus faecalis ATCC 29212)
Enterococcus faecalis [3] = experiment: In vitro antibacterial activity against vancomycin-susceptible E. f. 153 (Enterococcus faecalis ATCC 29212)
Staphylococcus aureus [4] = experiment: In vitro antibacterial activity against S. a. 035 (Staphylococcus aureus ATCC 29213)
Staphylococcus aureus [5] = experiment: In vitro antibacterial activity against S. a. 213 (Staphylococcus. aureus ATCC 49951)
Staphylococcus aureus [6] = experiment: In vitro antibacterial activity against methicillin-resistant S. a. 019 (Staphylococcus aureus ATCC 33591 )
Staphylococcus aureus [7] = experiment: In vitro antibacterial activityd against methicillin-resistant S. a. 019 (Staphylococcus aureus ATCC 33591 )
Staphylococcus aureus [8] = experiment: In vitro minimum inhibitory concentration of compound against S. a. 035 (Staphylococcus aureus ATCC 29213)
Enterococcus faecium [9] = experiment: In vitro antibacterial activityd against vancomycin-resistant Enterococcus faecium 154 (Enterococcus faecium ATCC 12202)

Row | SMILES | MIC (Enterococcus faecium [1]) | MIC (Enterococcus faecalis [2]) | MIC (Enterococcus faecalis [3]) | MIC (Staphylococcus aureus [4]) | MIC (Staphylococcus aureus [5]) | MIC (Staphylococcus aureus [6]) | MIC (Staphylococcus aureus [7]) | MIC (Staphylococcus aureus [8]) | MIC (Enterococcus faecium [9])
1 | CC(=O)NNC[C@H]1CN(c2ccc(OCCN3CCCCC3)c(F)c2)C(=O)O1 | 64 µg/mL (≈ 162 µM) | 64 µg/mL (≈ 162 µM) | 64 µg/mL (≈ 162 µM) | 64 µg/mL (≈ 162 µM) | 64 µg/mL (≈ 162 µM) | 32 µg/mL (≈ 81.1 µM) |  |  | 
2 | CO/C(S)=N/NC[C@H]1CN(c2ccc(OCCN3CCSCC3)c(F)c2)C(=O)O1 | 2 µg/mL (≈ 4.5 µM) | 1 µg/mL (≈ 2.25 µM) | 2 µg/mL (≈ 4.5 µM) | 4 µg/mL (≈ 9 µM) | 4 µg/mL (≈ 9 µM) |  | 1 µg/mL (≈ 2.25 µM) |  | 
3 | C/C(S)=N/NC[C@H]1CN(c2ccc(OCCN3CCOCC3)c(F)c2)C(=O)O1 | 2 µg/mL (≈ 4.85 µM) | 2 µg/mL (≈ 4.85 µM) | 2 µg/mL (≈ 4.85 µM) |  | 2 µg/mL (≈ 4.85 µM) | 1 µg/mL (≈ 2.42 µM) |  | 2 µg/mL (≈ 4.85 µM) | 
4 | CC(=O)NC[C@H]1CN(c2ccc(N3CCOCC3)c(F)c2)C(=O)O1 [LINEZOLID] | 2 µg/mL (≈ 5.93 µM) |  |  |  |  | 1 µg/mL (≈ 2.96 µM) |  |  | 
5 | CC(=O)NNC[C@H]1CN(c2ccc(OCCN3CCOCC3)cc2)C(=O)O1 | > 32 µg/mL | > 32 µg/mL | > 32 µg/mL | > 32 µg/mL |  | > 32 µg/mL |  |  | 
6 | CN[C@H](CC(C)C)C(=O)N[C@H]1C(=O)N[C@@H](CC(N)=O)C(=O)N[C@H]2C(=O)N[C@H]3C(=O)N[C@H](C(=O)N[C@H](C(=O)O)c4cc(O)cc(O)c4-c4cc3ccc4O)[C@H](O)c3ccc(c(Cl)c3)Oc3cc2cc(c3O[C@@H]2O[C@H](CO)[C@@H](O)[C@H](O)[C@H]2O[C@H]2C[C@](C)(N)[C@H](O)[C@H](C)O2)Oc2ccc(cc2Cl)[C@H]1O [VANCOMYCIN] | > 32 µg/mL | 2 µg/mL (≈ 1.38 µM) | > 32 µg/mL |  |  |  |  |  | 
7 | CC(=O)NNC[C@H]1CN(c2ccc(OCCN3CCCCC3)cc2)C(=O)O1 | > 32 µg/mL | > 32 µg/mL | > 32 µg/mL | > 32 µg/mL |  | > 32 µg/mL |  |  | 
8 | C/C(S)=N/NC[C@H]1CN(c2ccc(OCCN3CCCCC3)c(F)c2)C(=O)O1 | 4 µg/mL (≈ 9.74 µM) | 8 µg/mL (≈ 19.5 µM) | 4 µg/mL (≈ 9.74 µM) | 8 µg/mL (≈ 19.5 µM) | 8 µg/mL (≈ 19.5 µM) | 2 µg/mL (≈ 4.87 µM) |  |  | 
9 | CC(=O)NNC[C@H]1CN(c2ccc(OCCN3CCCC3)cc2)C(=O)O1 | > 32 µg/mL | > 32 µg/mL | > 32 µg/mL | > 32 µg/mL |  | 32 µg/mL (≈ 88.3 µM) |  |  | 
10 | CC(=O)NNC[C@H]1CN(c2ccc(OCCN3CCSCC3)c(F)c2)C(=O)O1 | 4 µg/mL (≈ 9.7 µM) | 16 µg/mL (≈ 38.8 µM) | 16 µg/mL (≈ 38.8 µM) | 16 µg/mL (≈ 38.8 µM) | 16 µg/mL (≈ 38.8 µM) | 4 µg/mL (≈ 9.7 µM) |  |  | 
11 | CO/C(S)=N/NC[C@H]1CN(c2ccc(OCCN3CCOCC3)c(F)c2)C(=O)O1 | 2 µg/mL (≈ 4.67 µM) | 2 µg/mL (≈ 4.67 µM) | 4 µg/mL (≈ 9.34 µM) | 4 µg/mL (≈ 9.34 µM) | 4 µg/mL (≈ 9.34 µM) | 2 µg/mL (≈ 4.67 µM) |  |  | 
12 | CC(=O)NNC[C@H]1CN(c2ccc(OCCOCc3ccccc3)c(F)c2)C(=O)O1 |  | 32 µg/mL (≈ 76.7 µM) | 32 µg/mL (≈ 76.7 µM) | 16 µg/mL (≈ 38.3 µM) |  | 8 µg/mL (≈ 19.2 µM) |  |  | 32 µg/mL (≈ 76.7 µM)
13 | CC(=O)NNC[C@H]1CN(c2ccc(OCCO)c(F)c2)C(=O)O1 |  | 16 µg/mL (≈ 48.9 µM) | 16 µg/mL (≈ 48.9 µM) | 8 µg/mL (≈ 24.4 µM) |  |  | 8 µg/mL (≈ 24.4 µM) |  | 16 µg/mL (≈ 48.9 µM)
14 | C/C(S)=N/NC[C@H]1CN(c2ccc(OCCN3CCSCC3)c(F)c2)C(=O)O1 | 2 µg/mL (≈ 4.67 µM) | 1 µg/mL (≈ 2.33 µM) | 2 µg/mL (≈ 4.67 µM) | 2 µg/mL (≈ 4.67 µM) | 2 µg/mL (≈ 4.67 µM) | 0.5 µg/mL (≈ 1.17 µM) |  |  | 
15 | CC(=O)NNC[C@H]1CN(c2ccc(OCCN3CCOCC3)c(F)c2)C(=O)O1 | 4 µg/mL (≈ 10.1 µM) | 16 µg/mL (≈ 40.4 µM) | 16 µg/mL (≈ 40.4 µM) | 16 µg/mL (≈ 40.4 µM) | 16 µg/mL (≈ 40.4 µM) | 4 µg/mL (≈ 10.1 µM) |  |  | 
